According to patent publication US9321747B2, “Acid addition salt of substituted pyridine compound” (DAIICHI SANKYO COMPANY, LIMITED, priority 2012, dated 2016):
Counter-ions that a name gives are not always drawn.

Target: recombinant human CETP protein (Homo sapiens (Human), UniProt P11597)
Assay: Test of CETP inhibition activity (in vitro, buffer-based)
Assay type: biochemical
Settings: [14C]-cholesteryl ester transfer from reconstituted HDL to acceptor lipoprotein, 37° C., 60 minutes, PBS buffer
Procedure: Test of CETP Inhibition Activity (In Vitro, Buffer-Based)
(1) Preparation of Reconstituted HDL
Cholesterol (1.125 μmol), phosphatidyl choline (4.5 μmol) and [^14C]-labeled cholesteryl ester (2.0 μCi; 40 μl) were taken in a glass test tube and well mixed with a vortex, and dried under a nitrogen gas current so that it formed a thin film. The obtained mixture was dissolved in ethanol (200 μl), which was designated as Solution A. A PBS solution [a mixed solution of Na2HPO4 (30 mM), KH2PO4 (8.8 mM), NaCl (60 mM) and EDTA (pH 7.4; 0.67 mM); 4 ml] was taken in a tube and the reaction solution was vigorously stirred with a vortex under a nitrogen current. The above-described Solution A was gently injected into this mixture with a syringe and the reaction solution was vigorously stirred with a vortex for 5 minutes under a nitrogen current. Sodium cholate (200 mM; 0.38 ml) was added to the obtained mixture and the reaction solution was stirred for 2 minutes. ApoA-I protein (3 mg) was added to the obtained mixture and the reaction solution was stirred for 2 minutes. The obtained mixture was adjusted to 5 ml with the PBS solution and then dialyzed with the PBS solution. The obtained mixture was designated as the reconstituted HDL.
(2) Preparation of Acceptor Lipoprotein
NaBr was added to the plasma of a healthy person and the density of the mixture was adjusted to 1.019, and the mixture was subjected to density gradient centrifugation (40000 rpm, for 16 hours) to remove the fraction having a density of less than 1.019. NaBr was added to the obtained mixture and the density of the solution was adjusted to 1.063, and the solution was subjected to density gradient centrifugation (40000 rpm, 18 hours) to provide the fraction consisting of IDL (intermediate density lipoprotein) and LDL (1.019<density<1.063). The obtained fraction was dialyzed with the PBS solution. The obtained mixture was designated as the acceptor lipoprotein.
(3) Measurement of CETP Inhibition Activity
A recombinant human CETP protein (manufactured by Roar Biomedical Inc.; 4.5 ng), the acceptor lipoprotein described in (2) above (32.5 μg) and 5,5′-dithio-bis-(2-nitrobenzoic acid) (7 mM, 15 μl) were taken in a 96 well plate and the total amount of the mixture was adjusted to 48.5 μl with the PBS solution. The test compound [DMSO solution (concentration: 0.15, 0.5, 1.5, 5, 15, 50, 150 and 500 μM); 1.5 μl] was added to each well and the mixture was incubated in a thermostatic bath at 37° C. for 60 minutes. The reconstituted HDL (50 μl) described in (1) above was added to each well and the mixture was reacted in a thermostatic bath at 37° C. for 60 minutes. The 96 well plate was moved onto ice and a precipitation reagent [a mixed solution of magnesium chloride (60 mM) and 0.1% dextran sulfate[1/1(v/v)]; 15 μl] was added to each well, and then the mixture was allowed to stand on ice for 15 minutes. The reaction solution (80 μl) in each well was moved to a filter plate and centrifuged at 1500 rpm for 1 minute, and the filtrate which passed through the filter was designated as the HDL fraction and the radioactivity thereof was measured with a scintillation counter. The percentage decrease in radioactivity in the case where the test compound was added in comparison with that in case where the test compound was not added was designated as the percentage CETP inhibition. The IC50 value was calculated from the percentage CETP inhibition.

Sequence of recombinant human CETP protein (P11597 18-493): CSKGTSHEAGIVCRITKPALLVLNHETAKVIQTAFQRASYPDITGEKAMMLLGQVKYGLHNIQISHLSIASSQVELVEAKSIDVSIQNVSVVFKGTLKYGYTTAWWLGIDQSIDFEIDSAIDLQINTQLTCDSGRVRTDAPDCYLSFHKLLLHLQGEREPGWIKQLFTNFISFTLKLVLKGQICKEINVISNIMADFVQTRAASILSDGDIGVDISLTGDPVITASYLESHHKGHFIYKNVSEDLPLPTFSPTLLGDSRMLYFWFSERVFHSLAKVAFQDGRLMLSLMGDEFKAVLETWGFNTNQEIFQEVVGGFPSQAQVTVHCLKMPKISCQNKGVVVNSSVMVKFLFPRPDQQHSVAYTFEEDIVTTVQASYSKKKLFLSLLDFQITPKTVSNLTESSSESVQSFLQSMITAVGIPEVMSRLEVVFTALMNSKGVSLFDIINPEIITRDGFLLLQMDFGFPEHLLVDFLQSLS

For CC1(C)Cc2nc(C3CCN(c4ncc(OCC(CO)CO)cn4)CC3)c([C@@H](F)c3ccc(C(F)(F)F)cc3)c(C3CCC(F)(F)CC3)c2[C@@H](O)C1 [Example 1, (5S)-4-(4,4-Difluorocyclohexyl)-3-{(S)-fluoro[4-(trifluoromethyl)phenyl]methyl}-2-(1-{5-[3-hydroxy-2-(hydroxymethyl)propoxy]pyrimidin-2-yl}piperidin-4-yl)-7,7-dimethyl-5,6,7,8-tetrahydr oquinolin-5-ol dihydrochloride], which IC50 (dihydrochloride) is on record?
Its IC50 is 35.2 nM.

CC1(C)Cc2nc(C3CCN(c4ncc(OCC(CO)CO)cn4)CC3)c([C@@H](F)c3ccc(C(F)(F)F)cc3)c(C3CCC(F)(F)CC3)c2[C@@H](O)C1 [Example 2, (5S)-4-(4,4-Difluorocyclohexyl)-3-{(S)-fluoro[4-(trifluoromethyl)phenyl]methyl}-2-(1-{5-[3-hydroxy-2-(hydroxymethyl)propoxy]pyrimidin-2-yl}piperidin-4-yl)-7,7-dimethyl-5,6,7,8-tetrahydroquinolin-5-ol dihydrobromide] was tested. Which IC50 did it give?
The IC50 was 30.8 nM.

With CC1(C)Cc2nc(C3CCN(c4ncc(OCC(C)(CO)CO)cn4)CC3)c([C@@H](F)c3ccc(C(F)(F)F)cc3)c(C3CCC(F)(F)CC3)c2[C@@H](O)C1 [Example 3, (5S)-4-(4,4-Difluorocyclohexyl)-3-{(S)-fluoro[4-(trifluoromethyl)phenyl]methyl}-2-(1-{5-[3-hydroxy-2-(hydroxymethyl)-2-methylpropoxy]pyrimidin-2-yl}piperidin-4-yl)-7,7-dimethyl-5,6,7,8-tetrahydroquinolin-5-ol dihydrobromide] as the compound, how does the IC50 (dihydrobromide) read?
Its IC50 is 39.3 nM.

With CC1(C)Cc2nc(C3CCN(c4ncc(OCC(C)(CO)CO)cn4)CC3)c([C@@H](F)c3ccc(C(F)(F)F)cc3)c(C3CCC(F)(F)CC3)c2[C@@H](O)C1 [Example 4, (5S)-4-(4,4-Difluorocyclohexyl)-3-{(S)-fluoro[4-(trifluoromethyl)phenyl]methyl}-2-(1-{5-[3-hydroxy-2-(hydroxymethyl)-2-methylpropoxy]pyrimidin-2-yl}piperidin-4-yl)-7,7-dimethyl-5,6,7,8-tetrahydroquinolin-5-ol dihydrochloride] as the compound, how does the IC50 (dihydrochloride) read?
Its IC50 is 22.3 nM.

For CC1(C)Cc2nc(C3CCN(c4ncc(OCC(C)(CO)CO)cn4)CC3)c([C@@H](F)c3ccc(C(F)(F)F)cc3)c(C3CCC(F)(F)CC3)c2[C@@H](O)C1 [Example 5, (5S)-4-(4,4-Difluorocyclohexyl)-3-{(S)-fluoro[4-(trifluoromethyl)phenyl]methyl}-2-(1-{5-[3-hydroxy-2-(hydroxymethyl)-2-methylpropoxy]pyrimidin-2-yl}piperidin-4-yl)-7,7-dimethyl-5,6,7,8-tetrahydroquinolin-5-ol methanesulfonate], which IC50 is on record?
The IC50 was 28.5 nM.

Which IC50 (disuccinate) does the source give for CC(C)(O)CCOc1cnc(N2CCC(c3nc4c(c(C5CCC(F)(F)CC5)c3[C@@H](F)c3ccc(C(F)(F)F)cc3)[C@@H](O)CC(C)(C)C4)CC2)nc1 [Example 8, (5S)-4-(4,4-Difluorocyclohexyl)-3-{(S)-fluoro[4-(trifluoromethyl)phenyl]methyl}-2-{1-[5-(3-hydroxy-3-methylbutoxy)pyrimidin-2-yl]piperidin-4-yl}-7,7-dimethyl-5,6,7,8-tetrahydroquinolin-5-ol disuccinate] here?
Its IC50 is 22.7 nM.

For CC(C)(O)CCOc1cnc(N2CCC(c3nc4c(c(C5CCC(F)(F)CC5)c3[C@@H](F)c3ccc(C(F)(F)F)cc3)[C@@H](O)CC(C)(C)C4)CC2)nc1 [Example 9, (5S)-4-(4,4-Difluorocyclohexyl)-3-{(S)-fluoro[4-(trifluoromethyl)phenyl]methyl}-2-{1-[5-(3-hydroxy-3-methylbutoxy)pyrimidin-2-yl]piperidin-4-yl}-7,7-dimethyl-5,6,7,8-tetrahydroquinolin-5-ol benzenesulfonate], which IC50 is on record?
The IC50 was 11.6 nM.

For CC(C)(O)CCOc1cnc(N2CCC(c3nc4c(c(C5CCC(F)(F)CC5)c3[C@@H](F)c3ccc(C(F)(F)F)cc3)[C@@H](O)CC(C)(C)C4)CC2)nc1 [Example 10, (5S)-4-(4,4-Difluorocyclohexyl)-3-{(S)-fluoro[4-(trifluoromethyl)phenyl]methyl}-2-{1-[5-(3-hydroxy-3-methylbutoxy)pyrimidin-2-yl]piperidin-4-yl}-7,7-dimethyl-5,6,7,8-tetrahydroquinolin-5-ol maleate], which IC50 (maleate) is on record?
The IC50 was 13 nM.

How did the IC50 turn out when CC(C)(O)CCOc1cnc(N2CCC(c3nc4c(c(C5CCC(F)(F)CC5)c3[C@@H](F)c3ccc(C(F)(F)F)cc3)[C@@H](O)CC(C)(C)C4)CC2)nc1 [Example 11, (5S)-4-(4,4-Difluorocyclohexyl)-3-{(S)-fluoro[4-(trifluoromethyl)phenyl]methyl}-2-{1-[5-(3-hydroxy-3-methylbutoxy)pyrimidin-2-yl]piperidin-4-yl}-7,7-dimethyl-5,6,7,8-tetrahydroquinolin-5-ol hemifumarate] was run?
Its IC50 is 28.9 nM.

How did the IC50 (dihydrochloride) turn out when CC1(C)Cc2nc(C3CCN(c4ncc(OC[C@@H](O)CO)cn4)CC3)c([C@@H](F)c3ccc(C(F)(F)F)cc3)c(C3CCC(F)(F)CC3)c2[C@@H](O)C1 [Example 13, (5S)-4-(4,4-Difluorocyclohexyl)-2-[1-(5-{[(2S)-2,3-dihydroxypropyl]oxy}pyrimidin-2-yl)piperidin-4-yl]-3-{(S)-fluoro[4-(trifluoromethyl)phenyl]methyl}-7,7-dimethyl-5,6,7,8-tetrahydroquinolin-5-ol dihydrochloride] was run?
The IC50 was 58.4 nM.

How did the IC50 turn out when CC1(C)Cc2nc(C3CCN(c4ncc(OC[C@@H](O)CO)cn4)CC3)c([C@@H](F)c3ccc(C(F)(F)F)cc3)c(C3CCC(F)(F)CC3)c2[C@@H](O)C1 [Example 14, (5S)-4-(4,4-Difluorocyclohexyl)-2-[1-(5-{[(2S)-2,3-dihydroxypropyl]oxy}pyrimidin-2-yl)piperidin-4-yl]-3-{(S)-fluoro[4-(trifluoromethyl)phenyl]methyl}-7,7-dimethyl-5,6,7,8-tetrahydroquinolin-5-ol dihydrobromide] was run?
The IC50 was 38.2 nM.

For CC1(C)Cc2nc(C3CCN(c4ncc(OC[C@H](O)CO)cn4)CC3)c([C@@H](F)c3ccc(C(F)(F)F)cc3)c(C3CCC(F)(F)CC3)c2[C@@H](O)C1 [Example 15, (5S)-4-(4,4-Difluorocyclohexyl)-2-[1-(5-{[(2R)-2,3-dihydroxypropyl]oxy}pyrimidin-2-yl)piperidin-4-yl]-3-{(S)-fluoro[4-(trifluoromethyl)phenyl]methyl}-7,7-dimethyl-5,6,7,8-tetrahydroquinolin-5-ol dihydrochloride], which IC50 (dihydrochloride) is on record?
The IC50 was 38 nM.

CC1(C)Cc2nc(C3CCN(c4ncc(OC[C@H](O)CO)cn4)CC3)c([C@@H](F)c3ccc(C(F)(F)F)cc3)c(C3CCC(F)(F)CC3)c2[C@@H](O)C1 [Example 16, (5S)-4-(4,4-Difluorocyclohexyl)-2-[1-(5-{[(2R)-2,3-dihydroxypropyl]oxy}pyrimidin-2-yl)piperidin-4-yl]-3-{(S)-fluoro[4-(trifluoromethyl)phenyl]methyl}-7,7-dimethyl-5,6,7,8-tetrahydroquinolin-5-ol dihydrobromide] was tested. Which IC50 did it give?
The IC50 was 28.5 nM.

How did the IC50 (dihydrochloride) turn out when CC1(C)Cc2nc(C3CCN(c4ncc(OCCCS(C)(=O)=O)cn4)CC3)c([C@@H](F)c3ccc(C(F)(F)F)cc3)c(C3CCC(F)(F)CC3)c2[C@@H](O)C1 [Example 17, (5S)-4-(4,4-Difluorocyclohexyl)-3-{(S)-fluoro[4-(trifluoromethyl)phenyl]methyl}-7,7-dimethyl-2-(1-{5-[3-(methylsulfonyl)propoxy]pyrimidin-2-yl}piperidin-4-yl)-5,6,7,8-tetrahydroquinolin-5-ol dihydrochloride] was run?
Its IC50 is 10 nM.
